Here are results for one compound from paper PMC10349806 (Nature Communications, 2023).

Assay type in all cases: cell-based, Plasmodium falciparum
The test system of one test is PfCRT variant E207S. The test is described as follows: CQ uptake assay, oocytes expressing E207S. The procedure:
(§1) Site-directed mutagenesis of PfCRT^Dd2 was performed as described using the megaprimer method with overlap extension[21],[54]. The primer pairs used are listed in Supplementary Table 6. Please note that a codon-optimized and oocyte-adapted version of PfCRT^Dd2 was used[22] (Supplementary Fig. 16). The resulting DNA fragment was cloned into the SP64T expression vector and verified by sequencing.
(§2) Oocytes were obtained as described previously. Briefly, adult (>2 years old) female X. laevis frogs (NASCO) were anesthetized in a cooled solution of ethyl 3-amino benzoate methanesulfonate (0.1%, w/v), followed by a surgical removal of parts of the ovary. The ovary lobes were carefully dissected and small pieces of oocytes were incubated in Ca^2+-free ND96 buffer (96 mM NaCl, 2 mM KCl, 1 mM MgCl2 buffered with 5 mM HEPES/NaOH, pH 7.5) supplemented with collagenase D (0.1%, w/v; Roche), BSA (0.5%, w/v), and 9 mm Na2HPO4 at 18 °C for 14-16 h while gentle shaking. After incubation, the oocytes were carefully washed several times with ND96 buffer (96 mM NaCl, 2 mM KCl, 1.8 mM CaCl2, 1 mM MgCl2 buffered with 5 mM HEPES/NaOH, pH 7.5) supplemented with 100 mg l^−1 gentamycin). Defolliculated and healthy-looking stage V-VI oocytes were manually selected for RNA microinjection. The RNA was generated as following: The codon-optimized sequences of PfCRT variants were cloned into the pSP64T expression vector. After vector linearization using the restriction endonucleases BamHI or SalI (New England Biolabs), transcription was performed using the in vitro SP6 mMessage mMachine Kit (Ambion)[34]. The obtained RNA was kept at −80 °C and diluted with nuclease-free water to a concentration of 0.6 μg μl^−1. Precision-bore glass capillary tubes (3.5-inch glass capillaries; Drummond Scientific Co.) were pulled on a vertical puller (P-87 Flaming/Brown micropipette puller, Sutter Instrument Co.), graduated, and placed on a microinjector (Nanoject II Auto-Nanoliter Injector, Drummond Scientific Co.). 50 nl of nuclease-free water alone (control oocytes) or 50 nl of 0.6 μg μl^−1 RNA were injected under stereomicroscopic control. Injected oocytes were incubated for 46–72 h at 18 °C with twice-daily buffer changes before usage in experiments.
(§3) Drug uptake assays were performed as described previously[21],[22],[24],[34]. […] The direction of radio-labeled drug transport is here from the mostly acidic extracellular solution (pH 4.5 or 6.0, as indicated) into the oocyte cytosol (pH ∼ 7.2), which corresponds to the efflux of drug from the acidic digestive vacuole (pH 5.2) into the parasite cytoplasm (pH 7.2). The topology of PfCRT in the oolemma is such that both the N- and C-terminus face the extracellular milieu[3],[22]. In the parasite, the N- and C-terminus face the lumen of the digestive vacuole. CQ uptake kinetics were performed by incubating oocytes in ND96 buffer adjusted to a pH of 4.5, 5.0, 5.5, or 6.0 and supplemented with 50 nM [^3H]CQ and one of 7 different CQ concentrations (10 µM, 50 µM, 100 µM, 200 µM, 300 µM, 400 µM, 500 µM CQ). The reaction was stopped at the 60 min time point, which is in the linear uptake range[22],[34] (Supplementary Fig. 17). For determination of the amount of drug uptake for each oocyte, the reaction medium was removed and the oocytes were washed three times with 2 ml of ice-cold ND96 buffer. Each oocyte was individually transferred to a scintillation vial containing 5% sodium dodecyl sulfate (200 μl) for lysis. The radioactivity of each sample was measured using a liquid scintillation analyzer Tri-Carb 4910 TR (PerkinElmer). Oocytes that were injected with water instead of RNA were analyzed in parallel, representing the uptake of a drug by diffusion and/or endogenous permeation pathways. The resulting value represents the “background“ level of drug accumulation in oocytes (in-depth discussion in[22]). […]

Another test concerns PfCRT variant E207G. The test is described as follows: CQ uptake assay, oocytes expressing E207G. The procedure: as §1, §2, §3
The subject of a further test is PfCRT variant E121A. The test is described as follows: CQ uptake assay, oocytes expressing E121A. On the procedure:
as §1, §2
Drug uptake assays were performed as described previously[21],[22],[24],[34]. […] The direction of radio-labeled drug transport is here from the mostly acidic extracellular solution (pH 4.5 or 6.0, as indicated) into the oocyte cytosol (pH ∼ 7.2), which corresponds to the efflux of drug from the acidic digestive vacuole (pH 5.2) into the parasite cytoplasm (pH 7.2). The topology of PfCRT in the oolemma is such that both the N- and C-terminus face the extracellular milieu[3],[22]. In the parasite, the N- and C-terminus face the lumen of the digestive vacuole. CQ uptake kinetics were performed by incubating oocytes in ND96 buffer adjusted to a pH of 4.5, 5.0, 5.5, or 6.0 and supplemented with 50 nM [^3H]CQ and one of 7 different CQ concentrations (10 µM, 50 µM, 100 µM, 200 µM, 300 µM, 400 µM, 500 µM CQ). The reaction was stopped at the 60 min time point, which is in the linear uptake range[22],[34] (Supplementary Fig. 17). […] The radioactivity of each sample was measured using a liquid scintillation analyzer Tri-Carb 4910 TR (PerkinElmer). Oocytes that were injected with water instead of RNA were analyzed in parallel, representing the uptake of a drug by diffusion and/or endogenous permeation pathways. […]

Another test has as its system PfCRT variant E207T. The test is described as follows: CQ uptake assay, oocytes expressing E207T. The procedure:
as §1, §2
Drug uptake assays were performed as described previously[21],[22],[24],[34]. […] The direction of radio-labeled drug transport is here from the mostly acidic extracellular solution (pH 4.5 or 6.0, as indicated) into the oocyte cytosol (pH ∼ 7.2), which corresponds to the efflux of drug from the acidic digestive vacuole (pH 5.2) into the parasite cytoplasm (pH 7.2). The topology of PfCRT in the oolemma is such that both the N- and C-terminus face the extracellular milieu[3],[22]. In the parasite, the N- and C-terminus face the lumen of the digestive vacuole. […] For determination of the amount of drug uptake for each oocyte, the reaction medium was removed and the oocytes were washed three times with 2 ml of ice-cold ND96 buffer. Each oocyte was individually transferred to a scintillation vial containing 5% sodium dodecyl sulfate (200 μl) for lysis. […] Oocytes that were injected with water instead of RNA were analyzed in parallel, representing the uptake of a drug by diffusion and/or endogenous permeation pathways. […] The specific PfCRT-mediated uptake was determined by subtracting the corresponding background value measured in water-injected oocytes from that of PfCRT-expressing oocytes. […]

The mark [1] stands for this setting: E207S, 50 µM CQ, 1 h, mean ± SEM.
Where [2] appears, read: pH 4.5, individual replicates, Fig 6b.
Setting [3] is: pH 6.0, individual replicates, Fig 6b.
The mark [4] stands for this setting: ratio of activity pH 4.5 / pH 6.0.
The mark [5] stands for this setting: E207G, 50 µM CQ, 1 h, mean ± SEM.
Where [6] appears, read: E121A, 50 µM CQ, 1 h, mean ± SEM.

“And” between values parts separate entries of the source, which are not always exact repeats. Equal entries are not always repeated.

As to `CCN(CC)CCCC(C)Nc1ccnc2cc(Cl)ccc12` (stereo not shown) [CQ, chloroquine], the “Activity at pH 4.5” value is 2.94 ± 0.21 pmol h-1 oocyte-1 in the test on PfCRT variant E207S (setting [1]), 2.26 ± 0.46 pmol h-1 oocyte-1 with PfCRT variant E207G (setting [5]) and 1.35 ± 0.09 pmol h-1 oocyte-1 with PfCRT variant E121A (setting [6]). In addition, the “Activity at pH 6.0” value is recorded as 3.07 ± 0.23 pmol h-1 oocyte-1 in the test with PfCRT variant E207S (setting [1]); 2.55 ± 0.15 pmol h-1 oocyte-1 in the test on PfCRT variant E207G (setting [5]); 3.95 ± 0.82 pmol h-1 oocyte-1 with PfCRT variant E121A (setting [6]); 2.62 ± 0.31 pmol h-1 oocyte-1 in the test on PfCRT variant E207T (E207T, 50 µM CQ, 1 h, mean ± SEM). Further, the R-value worked out at 0.96 ± 0.01 in the test on PfCRT variant E207S (E207S, CQ transport at pH 4.5 / pH 6.0); 0.88 ± 0.06 in the test with PfCRT variant E207G (E207G, CQ transport at pH 4.5 / pH 6.0); 0.43 ± 0.06 in the test on PfCRT variant E121A (E121A, CQ transport at pH 4.5 / pH 6.0); 0.91 ± 0.05 in the test with PfCRT variant E207T (E207T, CQ transport at pH 4.5 / pH 6.0). Moreover, the “E207S transport activity pH 4.5” value in the test with PfCRT variant E207S (setting [2]) was 3.45 pmol oocyte-1 h-1 and 2.79 pmol oocyte-1 h-1 and 2.59 pmol oocyte-1 h-1. Also, in the test with PfCRT variant E207S (setting [3]), the “E207S transport activity pH 6.0” value was 3.59 pmol oocyte-1 h-1 and 2.98 pmol oocyte-1 h-1 and 2.63 pmol oocyte-1 h-1. Also, in the test with PfCRT variant E207S (setting [4]), the “E207S R-value” is 0.96 and 0.94 and 0.98. In the test on PfCRT variant E207G (setting [2]), the “E207G transport activity pH 4.5” value was 2.31 pmol oocyte-1 h-1 and 2.79 pmol oocyte-1 h-1 and 1.67 pmol oocyte-1 h-1. The “E207G transport activity pH 6.0” value in the test with PfCRT variant E207G (setting [3]) was 2.70 pmol oocyte-1 h-1 and 2.76 pmol oocyte-1 h-1 and 2.19 pmol oocyte-1 h-1. The “E207G R-value” with PfCRT variant E207G (setting [4]) was 0.86 and 1.01 and 0.76. The “E121A transport activity pH 4.5” value in the test on PfCRT variant E121A (pH 4.5, single replicates, Fig 1d left) was 1.13 pmol oocyte-1 h-1 and 1.51 pmol oocyte-1 h-1 and 1.41 pmol oocyte-1 h-1. Moreover, the “E121A transport activity pH 6.0” value in the test on PfCRT variant E121A (pH 6.0, single replicates, Fig 1d left) was 5.74 pmol oocyte-1 h-1 and 2.27 pmol oocyte-1 h-1 and 3.83 pmol oocyte-1 h-1. In addition, the “E207T transport activity pH 4.5” value with PfCRT variant E207T (setting [2]) was 3.35 pmol oocyte-1 h-1 and 2.14 pmol oocyte-1 h-1 and 1.74 pmol oocyte-1 h-1. In addition, the “E207T transport activity pH 6.0” value in the test with PfCRT variant E207T (setting [3]) is 3.37 pmol oocyte-1 h-1 and 2.31 pmol oocyte-1 h-1 and 2.17 pmol oocyte-1 h-1. Also, the “E207T R-value” in the test with PfCRT variant E207T (setting [4]) was 0.99 and 0.93 and 0.80.
